Measurements published in the supplement of paper PMC10307832.

Columns and labels:
Experiment in all cases: relative viability (nuclei count vs DMSO), 5 days (fraction); higher = more cells survive
Bleomycin + Phenformin = compound: CC1=C(N=C(N=C1N)[C@H](CC(=O)N)NC[C@@H](C(=O)N)N)C(=O)N[C@@H]([C@H](C2=CN=CN2)OC3C(C(C(C(O3)CO)O)O)OC4C(C(C(C(O4)CO)O)OC(=O)N)O)C(=O)N[C@H](C)[C@H]([C@H](C)C(=O)N[C@@H]([C@@H](C)O)C(=O)NCCC5=NC(=CS5)C6=NC(=CS6)C(=O)NCCC[S+](C)C)O [Bleomycin] + N=C(N)NC(=N)NCCc1ccccc1 [Phenformin] (partner 250 µM); conditions: main component drawn
Outline: (§1)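 A single step with final 0.05% Triton X-100, 1% formaldehyde and 1 ug/ml Hoechst fixed the cells and stained nuclei 5 days after treatment. Lung cancer cell lines in 1536-well plates had been treated by pin tool the day after seeding with one drug alone or a fixed anchor-drug dose plus five library-drug doses (not always all listed) in √10 steps, and nuclei were counted on 4× images. Relative viability is the ratio of nuclei in treated wells to nuclei in vehicle wells, taken as the median of duplicate plates.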

Bleomycin + Vorinostat = compound: CC1=C(N=C(N=C1N)[C@H](CC(=O)N)NC[C@@H](C(=O)N)N)C(=O)N[C@@H]([C@H](C2=CN=CN2)OC3C(C(C(C(O3)CO)O)O)OC4C(C(C(C(O4)CO)O)OC(=O)N)O)C(=O)N[C@H](C)[C@H]([C@H](C)C(=O)N[C@@H]([C@@H](C)O)C(=O)NCCC5=NC(=CS5)C6=NC(=CS6)C(=O)NCCC[S+](C)C)O [Bleomycin] + O=C(CCCCCCC(=O)Nc1ccccc1)NO [Vorinostat] (partner 1 µM); conditions: main component drawn
Outline: as §1

Etoposide + Lapatinib = compound: COc1cc([C@@H]2c3cc4c(cc3[C@@H](O[C@@H]3O[C@@H]5CO[C@@H](C)O[C@H]5[C@H](O)[C@H]3O)[C@H]3COC(=O)[C@H]23)OCO4)cc(OC)c1O [Etoposide] + CS(=O)(=O)CCNCc1ccc(-c2ccc3ncnc(Nc4ccc(OCc5cccc(F)c5)c(Cl)c4)c3c2)o1 [Lapatinib] (partner 2 µM)
Outline: as §1

Etoposide + Vorinostat = compound: COc1cc([C@@H]2c3cc4c(cc3[C@@H](O[C@@H]3O[C@@H]5CO[C@@H](C)O[C@H]5[C@H](O)[C@H]3O)[C@H]3COC(=O)[C@H]23)OCO4)cc(OC)c1O [Etoposide] + O=C(CCCCCCC(=O)Nc1ccccc1)NO [Vorinostat] (partner 1 µM)
Outline: as §1

Row | Cell Line | relative viability (Bleomycin + Phenformin; first compound 0.01 µM) | relative viability (Bleomycin + Phenformin; first compound 0.03162 µM) | relative viability (Bleomycin + Phenformin; first compound 0.1 µM) | relative viability (Bleomycin + Phenformin; first compound 0.3162 µM) | relative viability (Bleomycin + Phenformin; first compound 1 µM) | relative viability (Bleomycin + Vorinostat; first compound 0.01 µM) | relative viability (Bleomycin + Vorinostat; first compound 0.03162 µM) | relative viability (Bleomycin + Vorinostat; first compound 0.1 µM) | relative viability (Bleomycin + Vorinostat; first compound 0.3162 µM) | relative viability (Bleomycin + Vorinostat; first compound 1 µM) | relative viability (Etoposide + Lapatinib; first compound 0.01 µM) | relative viability (Etoposide + Lapatinib; first compound 0.03162 µM) | relative viability (Etoposide + Lapatinib; first compound 0.1 µM) | relative viability (Etoposide + Lapatinib; first compound 0.3162 µM) | relative viability (Etoposide + Lapatinib; first compound 1 µM) | relative viability (Etoposide + Vorinostat; first compound 0.01 µM) | relative viability (Etoposide + Vorinostat; first compound 0.03162 µM) | relative viability (Etoposide + Vorinostat; first compound 0.1 µM) | relative viability (Etoposide + Vorinostat; first compound 0.3162 µM) | relative viability (Etoposide + Vorinostat; first compound 1 µM)
1 | LK-2 | 0.289 | 0.281 | 0.304 | 0.23 | 0.16 | 0.232 | 0.281 | 0.217 | 0.209 | 0.195 | 0.949 | 1.23 | 0.566 | 0.555 | 0.217 | 0.317 | 0.374 | 0.165 | 0.158 | 0.149
2 | HCC-366 | 0.455 | 0.618 | 0.423 | 0.159 | 0.0675 | 0.115 | 0.135 | 0.0903 | 0.0328 | 0.0275 | 0.978 | 0.882 | 0.382 | 0.0593 | 0.0394 | 0.353 | 0.386 | 0.122 | 0.0606 | 0.0304
3 | BEN | 0.247 | 0.277 | 0.251 | 0.24 | 0.235 | 0.63 | 0.609 | 0.481 | 0.531 | 0.497 | 0.81 | 0.733 |  | 0.663 | 0.458 | 0.542 | 0.722 |  | 0.559 | 0.616
4 | NCI-H2347 | 0.374 | 0.437 | 0.222 | 0.255 | 0.286 | 0.487 | 0.518 | 0.414 | 0.338 | 0.39 | 1.13 | 0.835 | 0.547 | 0.406 | 0.422 | 0.412 | 0.646 | 0.475 | 0.382 | 0.432
5 | NCI-H1395 | 0.404 | 0.411 | 0.456 | 0.325 | 0.351 | 0.574 | 0.656 | 0.403 | 0.35 | 0.359 | 0.907 | 1.09 | 0.969 | 0.836 | 0.74 | 0.659 | 0.905 | 0.509 | 0.54 | 0.502
6 | 201T | 0.447 | 0.436 | 0.47 | 0.361 | 0.364 | 0.79 | 0.839 | 0.805 | 0.732 | 0.553 | 1.07 | 1.05 | 0.916 | 0.921 | 0.729 | 0.905 | 1.03 | 0.811 | 0.887 | 0.485
7 | NCI-H2170 | 0.415 | 0.426 | 0.422 | 0.374 | 0.338 | 0.639 | 0.591 | 0.605 | 0.383 | 0.34 | 0.294 | 0.264 |  | 0.292 | 0.23 | 0.782 | 0.846 |  | 0.755 | 0.438
8 | NCI-H520 | 0.315 | 0.577 | 0.4 | 0.279 | 0.35 | 0.592 | 0.743 | 0.589 | 0.574 | 0.416 | 0.839 | 0.829 | 0.563 | 0.72 | 0.437 | 0.777 | 0.776 | 0.878 | 0.591 | 0.461
9 | NCI-H727 | 0.65 | 0.621 | 0.469 |  | 0.502 | 1.18 | 1.17 | 1.08 | 0.618 | 0.93 | 0.844 | 0.937 | 0.511 | 0.665 | 0.589 | 1.16 | 1.47 | 0.873 | 1.12 | 0.96
10 | HCC-15 | 0.418 | 0.457 | 0.387 | 0.16 | 0.129 | 0.77 | 0.864 | 0.702 | 0.327 | 0.249 | 0.849 | 0.832 | 0.846 | 0.329 | 0.152 | 0.766 | 0.894 | 0.779 | 0.275 | 0.178
11 | ABC-1 | 0.241 | 0.234 | 0.258 | 0.239 | 0.199 | 1.24 | 1.28 | 1.07 | 0.684 | 0.579 | 1.05 | 1.34 | 1.09 | 1.1 | 0.667 | 1.07 | 1.57 | 0.571 | 0.55 | 0.223
12 | NCI-H460 | 0.287 | 0.275 | 0.124 | 0.0345 | 0.0288 | 0.4 | 0.221 | 0.158 | 0.0343 | 0.0306 | 0.726 | 0.732 | 0.394 | 0.0299 | 0.0144 | 0.688 | 0.261 | 0.286 | 0.0502 | 0.0457
13 | EPLC-272H | 0.247 | 0.286 | 0.228 | 0.173 | 0.116 | 0.296 | 0.323 | 0.223 | 0.12 | 0.0952 | 0.862 | 1.05 | 0.497 | 0.807 | 0.408 | 0.415 | 0.464 | 0.426 | 0.267 | 0.235
